Experimental data: US20050032873A1, “3-Amino chroman and 2-amino tetralin derivatives” (Wyeth, priority 2003, published 2005)
Like-named read-outs stand apart in the source and are kept apart here.

Legend:
5-HT1A receptor [1] = molecular target: T1, 5-HT1A receptor (Homo sapiens, UniProt P08908); assay: cAMP accumulation assay, 5-HT1A function; type: cell-based; settings: for IC50: cells marked IC50 (antagonist), read-out: 5-HT1A Function cAMP IC50; for Emax: in brackets after EC50 or IC50, read-out: 5-HT1A Function cAMP (Emax); for EC50: cells marked EC50 (agonist)
T1 sequence (P08908 1-422): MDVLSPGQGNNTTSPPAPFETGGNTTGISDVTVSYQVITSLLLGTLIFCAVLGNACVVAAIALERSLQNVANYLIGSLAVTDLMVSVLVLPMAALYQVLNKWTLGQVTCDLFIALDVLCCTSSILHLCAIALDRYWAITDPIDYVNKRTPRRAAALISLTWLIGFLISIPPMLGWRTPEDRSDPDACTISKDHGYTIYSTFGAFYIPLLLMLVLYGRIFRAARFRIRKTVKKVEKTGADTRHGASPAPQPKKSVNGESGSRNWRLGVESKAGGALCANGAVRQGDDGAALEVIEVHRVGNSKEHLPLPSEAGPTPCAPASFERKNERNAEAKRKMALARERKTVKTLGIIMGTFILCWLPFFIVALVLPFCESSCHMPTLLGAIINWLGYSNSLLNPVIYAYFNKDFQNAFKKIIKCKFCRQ

5-HT1A receptor [2] = molecular target: T1, 5-HT1A receptor; assay: 5-HT1A receptor affinity: displacement of [3H] 8-OH-DPAT; type: binding; set-up: expressed in transfected cells; settings: displacement of [3H] 8-OH-DPAT; CHO cells stably transfected with human 5-HT1A receptors; read-out: 5-HT1A Receptor Affinity Ki
serotonin transporter = molecular target: T2, serotonin transporter (Rattus norvegicus, UniProt P31652); assay: 5-HT transporter affinity: displacement of 3H-paroxetine from male rat cortical membranes; type: binding; settings: displacement of 3H-paroxetine; male rat cortical membranes; read-out: 5-HT Transporter Affinity Ki
T2 construct: displace ^3H-paroxetine from male rat cortical membranes; from tissue; host or cells: male rat cortical membranes

[3] = molecular target: T3, cloned human 5-HT1A receptors (Homo sapiens, UniProt P08908); assay: 35S-GTPγS binding assay, 5-HT1A function; type: biochemical; settings: for IC50: antagonist potency, reversal of 8-OH-DPAT, read-out: 5-HT1A Function GTPγS IC50; for EC50: agonist potency
T3 construct: expressed in transfected cells
T3 sequence (P08908 1-422): T1 sequence (P08908 1-422)

[4] = maximum inhibitory effect, in brackets after IC50, read-out: 5-HT1A Function GTPγS (Imax)
[5] = maximum stimulatory effect, in brackets after EC50, read-out: 5-HT1A Function GTPγS (Emax)

T2 sequence (P31652 whole entry): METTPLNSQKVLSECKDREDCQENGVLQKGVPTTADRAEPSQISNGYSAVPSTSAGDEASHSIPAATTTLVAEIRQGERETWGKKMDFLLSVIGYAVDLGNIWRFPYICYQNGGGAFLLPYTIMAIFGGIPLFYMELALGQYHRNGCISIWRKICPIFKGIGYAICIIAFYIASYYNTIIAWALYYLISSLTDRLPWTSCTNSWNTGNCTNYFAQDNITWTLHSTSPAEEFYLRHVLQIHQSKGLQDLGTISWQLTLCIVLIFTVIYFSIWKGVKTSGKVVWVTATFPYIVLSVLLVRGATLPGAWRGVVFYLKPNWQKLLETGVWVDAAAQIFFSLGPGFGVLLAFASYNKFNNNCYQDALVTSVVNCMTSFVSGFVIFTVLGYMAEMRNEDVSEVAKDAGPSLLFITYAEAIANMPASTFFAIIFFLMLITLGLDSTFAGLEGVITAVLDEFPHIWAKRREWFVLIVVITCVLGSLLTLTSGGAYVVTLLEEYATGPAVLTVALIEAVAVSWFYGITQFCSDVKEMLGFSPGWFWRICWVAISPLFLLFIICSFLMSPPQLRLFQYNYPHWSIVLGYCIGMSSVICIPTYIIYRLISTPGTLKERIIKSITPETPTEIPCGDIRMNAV

Compound	IC50 (5-HT1A receptor [1])	Emax (5-HT1A receptor [1])	Ki (5-HT1A receptor [2])	Ki (serotonin transporter)	IC50 [3]	Emax [3, 4]	EC50 (5-HT1A receptor [1])	EC50 [3]	Emax [3, 5]
NC(=O)c1cccc2c1CC(N(CCCc1c[nH]c3ccc(F)cc13)CC1CC1)CO2 (stereo not shown) [Compound 148, 3-{(cyclopropylmethyl)[3-(5-fluoro-1H-indol-3-yl)propyl]amino}chromane-5-carboxamide]		100%	0.33 nM	3.25 nM			0.54 nM	8.04 nM	81%
CCN(CCCc1c[nH]c2ccc(F)cc12)C1COc2cccc(C(N)=O)c2C1 (stereo not shown) [Compound 149, 3-{ethyl[3-(5-fluoro-1H-indol-3-yl)propyl]amino}chromane-5-carboxamide]		70%	2.72 nM	9.25 nM			3.65 nM	44.9 nM	79%
CCCN(CCCc1c[nH]c2ccc(F)cc12)C1COc2cccc(C(N)=O)c2C1 (stereo not shown) [Compound 150, 3-[[3-(5-fluoro-1H-indol-3-yl)propyl](propyl)amino]chromane-5-carboxamide]		100%	0.93 nM	18.6 nM			1.23 nM	13 nM	74%
CCN(CCc1coc2c(OC)cccc12)C1COc2c(F)ccc(C(N)=O)c2C1 (stereo not shown) [Compound 157, 3-{ethyl[2-(7-methoxy-1-benzofuran-3-yl)ethyl]amino}-8-fluorochromane-5-carboxamide]		0%	83.8 nM	768 nM				1200 nM	70%
CCCN(CCc1coc2c(OC)cccc12)C1COc2c(F)ccc(C(N)=O)c2C1 (stereo not shown) [Compound 158, 8-fluoro-3-[[2-(7-methoxy-1-benzofuran-3-yl)ethyl](propyl)amino]chromane-5-carboxamide]		0%	232 nM	120 nM				10600 nM	59%
COc1cccc2c(CCN(CC3CC3)C3COc4c(F)ccc(C(N)=O)c4C3)coc12 (stereo not shown) [Compound 160, 3-{(cyclopropylmethyl)[2-(7-methoxy-1-benzofuran-3-yl)ethyl]amino}-8-fluorochromane-5-carboxamide]	948 nM	0%	33.8 nM	127 nM				1020 nM	51%
CCN(CCCc1coc2c(OC)cccc12)C1COc2c(F)ccc(C(N)=O)c2C1 (stereo not shown) [Compound 162, 3-{ethyl[3-(7-methoxy-1-benzofuran-3-yl)propyl]amino}-8-fluorochromane-5-carboxamide]		0%	2.09 nM	61.5 nM				45.8 nM	87%
CCCN(CCCc1coc2c(OC)cccc12)C1COc2c(F)ccc(C(N)=O)c2C1 (stereo not shown) [Compound 163, 8-fluoro-3-[[3-(7-methoxy-1-benzofuran-3-yl)propyl](propyl)amino]chromane-5-carboxamide]		0%	0.74 nM	539 nM				4.56 nM	52%
COc1cccc2c(CCCN(C3CCC3)C3COc4c(F)ccc(C(N)=O)c4C3)coc12 (stereo not shown) [Compound 164, 3-{cyclobutyl[3-(7-methoxy-1-benzofuran-3-yl)propyl]amino}-8-fluorochromane-5-carboxamide]	116 nM	0%	11.9 nM	428 nM	446 nM	100%			
COc1cccc2c(CCCN(CC3CC3)C3COc4c(F)ccc(C(N)=O)c4C3)coc12 (stereo not shown) [Compound 165, 3-{(cyclopropylmethyl)[3-(7-methoxy-1-benzofuran-3-yl)propyl]amino}-8-fluorochromane-5-carboxamide]	52.3 nM	0%	1.06 nM	913 nM	116 nM	91%		211 nM	22%
CCN(CCCCc1coc2c(OC)cccc12)C1COc2c(F)ccc(C(N)=O)c2C1 (stereo not shown) [Compound 168, 3-{ethyl[4-(7-methoxy-1-benzofuran-3-yl)butyl]amino}-8-fluorochromane-5-carboxamide]	50.8 nM	0%	3.49 nM	187 nM				243 nM	76%
CCCN(CCCCc1coc2c(OC)cccc12)C1COc2c(F)ccc(C(N)=O)c2C1 (stereo not shown) [Compound 169, 8-fluoro-3-[[4-(7-methoxy-1-benzofuran-3-yl)butyl](propyl)amino]chromane-5-carboxamide]	11.3 nM	0%	1.48 nM	528 nM	265 nM	100%			
COc1cccc2c(CCCCN(CC3CC3)C3COc4c(F)ccc(C(N)=O)c4C3)coc12 (stereo not shown) [Compound 170, 3-{(cyclopropylmethyl)[4-(7-methoxy-1-benzofuran-3-yl)butyl]amino}-8-fluorochromane-5-carboxamide]	103 nM	0%	0.72 nM	457 nM	158 nM	100%			

Next, values leading:

IC50 (5-HT1A receptor [1])	Emax (5-HT1A receptor [1])	Ki (5-HT1A receptor [2])	Ki (serotonin transporter)	IC50 [3]	Emax [3, 4]	EC50 (5-HT1A receptor [1])	EC50 [3]	Emax [3, 5]	Compound
668 nM	0%	288 nM	16.1 nM	5470 nM	100%				CNC(=O)c1ccc(F)c2c1C[C@H](N(CCCCc1c[nH]c3ccc(F)cc13)C1CCC1)CO2 [Compound 145a, (3S)-3-{cyclobutyl[4-(5-fluoro-1H-indol-3-yl)butyl]amino}-8-fluoro-N-methylchromane-5-carboxamide]
848 nM	0%	6.29 nM	8.63 nM	1270 nM	100%				CNC(=O)c1ccc(F)c2c1C[C@@H](N(CCCCc1c[nH]c3ccc(F)cc13)C1CCC1)CO2 [Compound 145b, (3R)-3-{cyclobutyl[4-(5-fluoro-1H-indol-3-yl)butyl]amino}-8-fluoro-N-methylchromane-5-carboxamide]
544 nM	0%	20 nM	181 nM	2200 nM	100%				C[C@H](CCN(C1CCC1)[C@H]1COc2c(F)ccc(C(N)=O)c2C1)c1c[nH]c2ccc(F)cc12 [Compound 152a, (3R)-3-{cyclobutyl[(3R)-3-(5-fluoro-1H-indol-3-yl)butyl]amino}-8-fluorochromane-5-carboxamide]
727 nM	0%	322 nM	182 nM	5000 nM	50%				C[C@H](CCN(C1CCC1)[C@@H]1COc2c(F)ccc(C(N)=O)c2C1)c1c[nH]c2ccc(F)cc12 [Compound 152b, (3S)-3-{cyclobutyl[(3R)-3-(5-fluoro-1H-indol-3-yl)butyl]amino}-8-fluorochromane-5-carboxamide]
727 nM	0%	20.2 nM	61.5 nM	3610 nM	100%				C[C@@H](CCN(C1CCC1)[C@H]1COc2c(F)ccc(C(N)=O)c2C1)c1c[nH]c2ccc(F)cc12 [Compound 153a, (3R)-3-{cyclobutyl[(3S)-3-(5-fluoro-1H-indol-3-yl)butyl]amino}-8-fluorochromane-5-carboxamide]
166 nM	0%	124 nM	122 nM	1450 nM	64%				C[C@@H](CCN(C1CCC1)[C@@H]1COc2c(F)ccc(C(N)=O)c2C1)c1c[nH]c2ccc(F)cc12 [Compound 153b, (3S)-3-{cyclobutyl[(3S)-3-(5-fluoro-1H-indol-3-yl)butyl]amino}-8-fluorochromane-5-carboxamide]
